Data as given in patent publication US8629100B2, “Method of inhibiting clostridium difficile by administration of oritavancin” (The Medicines Company, priority 2007, dated 2014).
≈ marks a conversion by molar mass, not a printed value. Entries after “also recorded” stand apart in the source; their conditions may differ. Where two headings read alike, the source gives them in different places.

Columns and labels:
[1] = test system: C. difficile PCR ribotype 027 spores; experiment: Phase-contrast microscopy of spore germination/outgrowth; assay type: cell-based; conditions: 10 mg/L for 2 h, washed 3x in PBS
Method: C. difficile spores were also exposed to 10 mg/L antimicrobial for 2 h, washed 3× in sterile PBS, re-suspended and inoculated into Brazier's broth medium (pH 7). Samples were removed at 2, 4, 6, 24, 32 and 48 h. Slides were viewed under phase-contrast microscopy and percentages of phase-bright spores, phase-dark spores and vegetative cells were recorded (FIG. 4).
Statistical analyses were performed by transforming percentage data using an Arcsin Transformation and analysed using a Wilcoxon signed rank test. P<0.05 was considered statistically significant. Supra-MIC concentrations of all antimicrobials prevented outgrowth but not germination of C. difficile spores.

[2] = test system: genotypically distinct C. difficile (n = 33); experiment: Agar incorporation MIC; assay type: cell-based; conditions: for MIC range / MIC90: AI; for MIC90 / MIC: Clostridioides difficile
Source text: Thirty-three genotypically distinct (by PCR ribotyping) C. difficile isolates were selected from a library of strains at the Leeds General Infirmary (Leeds, UK). Representative isolates of epidemic C. difficile PCR ribotypes 001, 106 and 027 were included in the panel. Control isolates of Staphylococcus aureus ATCC 29213, Enterococcus faecalis ATCC 29212 and Bacteroides fragilis ATCC 25285 were included in all MIC determinations to ensure procedure accuracy.
Agar incorporation MICs were determined based on the method of Freeman and Wilcox (J Antimicrob Chemother 2001; 47: 244-6). Briefly, bacteria were cultured in Schaedler's anaerobic broth (Oxoid, Basingstoke, UK) at 37° C. for 24 h in an anaerobic cabinet (Don Whitley Scientific, Shipley). […] Oritavancin was prepared in 0.002% P80. All antimicrobial solutions were sterilized by filtration through 0.22 um syringe filters. […] Wilkins Chalgren agar (Oxoid) incorporating doubling dilutions of antimicrobial agents (0.03-16 mg/L) was prepared with and without 0.002% P80 and with and without 2% lysed horse blood (E&O Labs, Bonneybridge, UK). All media and diluents were pre-reduced overnight in the anaerobic cabinet. Bacterial cultures were diluted in sterile saline and inoculated onto the surface of agar incorporation agar plates using a multipoint inoculator (˜10^4 cfu). Agar incorporation plates were incubated anaerobically for 48 h. MIC endpoints were read as the lowest concentration of antimicrobial agent where there is no apparent growth (disregarding a visible haze of growth or a single colony).

[3] = test system: C. difficile PCR ribotype 001 (vegetative, spores); experiment: Growth on antibiotic-exposed cellulose acetate filters (Example 3C); assay type: cell-based; conditions: for Growth of vegetative C. difficile on filters through which antibiotic had been filtered: PCR ribotype 001 overnight culture, anaerobic incubation; for Growth of C. difficile spores on filters through which antibiotic had been filtered: PCR ribotype 001 spores
Method: One mL solutions (containing no C. difficile spores) were processed as in Experiment 2B and filters placed onto Braziers CCEY agar. Onto the filters were inoculated 2×20 μL of:
a) Vegetative C. difficile (an overnight culture of PCR ribotype 001)
b) C. difficile spores (PCR ribotype 001), or
Growth/no growth was recorded following anaerobic incubation.

[4] = test system: indigenous gut microflora; experiment: In vitro human gut model: indigenous gut microflora counts; assay type: cell-based; conditions: for Decline in Bacteroides populations / Decline in enterococcal populations: following instillation, period E, vessel 3
Source text: The gut model was designed to allow the study of the intestinal microflora in the low pH, carbohydrate-excess conditions of the proximal colon and the carbohydrate-depleted, non-acidic conditions of the distal colon (Macfarlane et al., Microb Ecol 1998; 35: 180-7). Microbiological and physicochemical measurements within the gut model vessels were validated against the intestinal contents of sudden death victims (Macfarlane et al., Microb Ecol 1998; 35: 180-7). Each gut model consists of three fermentation vessels connected in a weir cascade system top-fed with growth medium at a controlled rate (D=0.015 h^−1). Vessels were sparged with oxygen-free nitrogen to ensure anaerobiosis, heated via a water-jacketed system (37° C.) and maintained at specific pH using fermenter controller units (Biosolo 3, Brighton Systems, UK) delivering 0.5 M HCl/NaOH. Vessel 1 (280 mL) was operated at pH 5.5 and high substrate availability, thus reflecting the conditions within the proximal colon, while vessels 2 and 3 (300 mL) were operated at pH 6.2 and 6.8, respectively, with low substrate availability, thus reflecting the conditions within the distal colon. The gut model was primed with faecal slurry ˜10% (w/v) and allowed to equilibrate with respect to bacterial populations for 14 days.
Faecal samples were collected from five healthy elderly (>65 years) volunteers and immediately transported to the laboratory under anaerobic conditions (GasPak, Oxoid, Basingstoke, UK). […] C. difficile-negative faeces were pooled and a coarse-filtered slurry (˜10% w/v) in sterile pre-reduced phosphate-buffered saline was prepared. Vessels of the gut models were filled to approximately two-thirds volume, and the growth medium pumps were started.
Major culturable components of the indigenous gut microflora and C. difficile were enumerated by viable counting (log10 cfu/mL) on selective and non-selective agars as reported previously (Freeman et al., J Antimicrob Chemother 2005; 56: 717-25). Bacterial groups enumerated were: total facultative anaerobes, facultatively anaerobic lactose fermenters, total anaerobes, bifidobacteria, Bacteroides fragilis group, total clostridia, lactobacilli, enterococci, total C. difficile and C. difficile spores. C. difficile cytotoxin production was quantified using a Vero cell cytotoxicity assay as described previously (Freeman et al., J Antimicrob Chemother 2003; 52: 96-102). Cytotoxin titres were expressed in log10 relative units (RU). Only C. difficile total bacterial counts, spore counts and cytotoxin titres were enumerated in vessel 1 of the gut model.
The use of the gut model to evaluate therapeutic interventions for CDI has been described previously (Freeman et al., J Antimicrob Chemother 2007; 60: 83-91; Freeman et al., J Antimicrob Chemother 2005; 56: 717-25). Briefly, following inoculation of each gut model with the faecal slurry, no further interventions were made for 13 days (period A). During period A, bacterial populations were enumerated every 2 days. Next (day 14), vessel 1 of each gut model was inoculated with a single inoculum of ˜10^7 cfu C. difficile PCR ribotype 027 spores (Freeman et al., J Antimicrob Chemother 2003; 52: 96-102), with no further interventions for 7 days (period B). From this point onwards, bacterial populations were enumerated daily.

[5] = test system: C. difficile (CD) ATCC 43255; experiment: Hamster model of CDI, oral administration; assay type: in vivo, Syrian golden hamsters; conditions: for Toxins A and B in caecal contents: ORI 100 mg/kg (PEG400) on Day 20 PI, VA 50 mg/kg once daily
[6] = read-out: GEO MIC, AI, P80 no LHB
[7] = read-out: GEO MIC, AI, P80 with LHB
[8] = read-out: GEO MIC, AI, no P80 no LHB
[9] = read-out: GEO MIC, AI, no P80 with LHB

Row | SMILES | Outgrowth of C. difficile spores prior-exposed to antimicrobial [1] | MIC range ([2]; P80 no LHB) [µg/mL] | MIC range ([2]; P80 with LHB) [µg/mL] | MIC range ([2]; no P80 no LHB) [µg/mL] | MIC range ([2]; no P80 with LHB) [µg/mL] | MIC90 ([2]; P80 no LHB) [µg/mL] | MIC90 ([2]; P80 with LHB) [µg/mL] | MIC90 ([2]; no P80 no LHB) [µg/mL] | MIC90 ([2]; no P80 with LHB) [µg/mL] | MIC [2, 6] [µg/mL] | MIC [2, 7] [µg/mL] | MIC [2, 8] [µg/mL] | MIC [2, 9] [µg/mL] | Growth of vegetative C. difficile on filters through which antibiotic had been filtered [3] | Growth of C. difficile spores on filters through which antibiotic had been filtered [3] | Decline in Bacteroides populations [4] [log10 cfu/mL] | Decline in enterococcal populations [4] [log10 cfu/mL] | Toxins A and B in caecal contents [5] | further results
1 | CN[C@H](CC(C)C)C(=O)N[C@H]1C(=O)N[C@@H](CC(N)=O)C(=O)N[C@H]2C(=O)N[C@H]3C(=O)N[C@H](C(=O)N[C@H](C(=O)O)c4cc(O)cc(O)c4-c4cc3ccc4O)[C@H](O)c3ccc(c(Cl)c3)Oc3cc2cc(c3O[C@@H]2O[C@H](CO)[C@@H](O)[C@H](O)[C@H]2O[C@H]2C[C@](C)(N)[C@H](O)[C@H](C)O2)Oc2ccc(cc2Cl)[C@H]1O [vancomycin] | not observed | 1 to 4 | 0.5 to 2 | 0.5 to 2 | 1 to 4 | 2 (≈ 1.38 µM) | 1 (≈ 0.69 µM) | 2 (≈ 1.38 µM) | 2 (≈ 1.38 µM) | 1.3 (≈ 0.897 µM) | 1 (≈ 0.69 µM) | 1.51 (≈ 1.04 µM) | 1.35 (≈ 0.932 µM) | grew | good growth | ~6 | ~1 | High level | Bifidobacteria lower than steady-state (period A) after cessation of instillation ([4]; period F): ~2 log10 cfu/mL
2 | CN[C@H](CC(C)C)C(=O)N[C@H]1C(=O)N[C@@H](CC(N)=O)C(=O)N[C@H]2C(=O)N[C@H]3C(=O)N[C@H](C(=O)N[C@H](C(=O)O)c4cc(O)cc(O)c4-c4cc3ccc4O)[C@H](O[C@H]3C[C@](C)(N)[C@@H](O)[C@H](C)O3)c3ccc(c(Cl)c3)Oc3cc2cc(c3O[C@@H]2O[C@H](CO)[C@@H](O)[C@H](O)[C@H]2O[C@H]2C[C@](C)(NCc3ccc(-c4ccc(Cl)cc4)cc3)[C@@H](O)[C@H](C)O2)Oc2ccc(cc2Cl)[C@H]1O [oritavancin, N-(4-(4-chlorophenyl)benzyl)A82846B] | much lower than control; also recorded: significantly inhibited | 2 to 4 | 1 to 4 | 2 to 4 | 0.5 to 4 | 4 (≈ 2.23 µM) | 4 (≈ 2.23 µM) | 4 (≈ 2.23 µM) | 2 (≈ 1.12 µM) | 2.7 (≈ 1.51 µM) | 1.58 (≈ 0.881 µM) | 2.33 (≈ 1.3 µM) | 1.72 (≈ 0.959 µM) | Greatly reduced numbers | unrecoverable | ~1 | ~2 | undetectable | Vegetative C. difficile recovered on exposed filters ([3]; on one plate): 1 cfu; Bifidobacteria after cessation of instillation ([4]; period F): remained below the limits of detection; Survival up to 20 days PI ([5]; 100 mg/kg once daily oral from Day 2 for 5 days, formulated in PEG400): All the animals treated with ORI survived; CD vegetative and spore cells in caecal content ([5]; 20 days PI, formulated in PEG400, LOD 1.47 (TC) and 1.77 (spores) Log 10 CFU/g): undetectable
